Experimental data as given in US20220409631A1, “METHODS OF INDUCING OR ENHANCING FARNESOID X RECEPTOR (FXR)-MEDIATED TRANSCRIPTIONAL RESPONSE” (YALE UNIVERSITY, priority 2019, published 2022).
“Also recorded” adds a separate entry of the source. Like-named read-outs stand apart in the source and are kept apart here.

How the values were obtained:
Assay type in all cases: cell-based
BACS = experiment: RT-qPCR for FXR target genes in HepG2 cells: BACS
Method: (§1) Real Time Quantitative PCR (RT-qPCR)—Real Time Quantitative PCR (RT-qPCR) for FXR target genes: RNA was extracted from NZZ compounds treated cells using the Roche High Pure RNA isolation kit. cDNA was then generated from RNA samples using Bio-rad iScript Advanced cDNA synthesis kit for RT-qPCR. qPCR was performed using primers as shown in the Table 1 and iTaq™ Universal SYBR® Green Supermix in CFX PCR machine (Bio-rad). Relative mRNA expression was calculated based on the change of the threshold cycle relative to the internal control, (3-actin, using a standard curve generated by purified PCR products.

VDR = target: T1, VDR (Homo sapiens, UniProt P11473); experiment: Hormone receptor signaling pathway selectivity: VDRE (VDR); conditions: for IC50: with VD3; for EC50: biphasic model of action, read-out: EC50, stimulation of VDR activity
T1 sequence (P11473 1-427): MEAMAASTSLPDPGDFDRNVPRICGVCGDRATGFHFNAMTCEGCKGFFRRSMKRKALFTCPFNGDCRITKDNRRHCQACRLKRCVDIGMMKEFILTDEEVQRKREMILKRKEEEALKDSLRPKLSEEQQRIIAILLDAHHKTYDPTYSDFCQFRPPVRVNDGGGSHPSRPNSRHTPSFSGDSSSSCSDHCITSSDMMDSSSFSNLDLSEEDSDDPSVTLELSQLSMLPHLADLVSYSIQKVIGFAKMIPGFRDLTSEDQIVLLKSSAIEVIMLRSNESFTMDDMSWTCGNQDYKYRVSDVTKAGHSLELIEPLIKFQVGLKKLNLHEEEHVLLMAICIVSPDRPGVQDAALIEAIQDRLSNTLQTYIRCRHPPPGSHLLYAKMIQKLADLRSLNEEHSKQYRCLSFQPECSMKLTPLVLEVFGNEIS

ER-α = target: T2, ER-α (Homo sapiens, UniProt P03372); experiment: Hormone receptor signaling pathway selectivity: ER-α mediated transcriptional response; conditions: with E2
T2 sequence (P03372 1-595): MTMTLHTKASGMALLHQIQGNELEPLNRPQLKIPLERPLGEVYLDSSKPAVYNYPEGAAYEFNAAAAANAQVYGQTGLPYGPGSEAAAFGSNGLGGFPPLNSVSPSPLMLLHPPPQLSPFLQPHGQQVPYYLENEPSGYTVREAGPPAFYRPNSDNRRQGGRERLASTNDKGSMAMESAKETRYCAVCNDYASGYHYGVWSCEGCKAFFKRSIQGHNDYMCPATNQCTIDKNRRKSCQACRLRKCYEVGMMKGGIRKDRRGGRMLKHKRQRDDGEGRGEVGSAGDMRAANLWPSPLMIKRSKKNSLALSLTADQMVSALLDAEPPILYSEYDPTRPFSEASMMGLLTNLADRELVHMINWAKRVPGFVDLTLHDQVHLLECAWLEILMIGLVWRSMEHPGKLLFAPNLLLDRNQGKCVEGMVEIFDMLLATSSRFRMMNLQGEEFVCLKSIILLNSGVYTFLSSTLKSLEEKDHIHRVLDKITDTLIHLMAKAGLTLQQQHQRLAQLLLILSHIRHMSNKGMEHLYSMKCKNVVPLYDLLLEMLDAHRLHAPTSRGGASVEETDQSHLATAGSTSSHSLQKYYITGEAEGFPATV

PPARa = experiment: RT-qPCR for FXR target genes in HepG2 cells: PPARa; conditions: concentration of about 75 μM to 85
Method: as §1

AR = target: T3, AR (Homo sapiens, UniProt P10275); experiment: Hormone receptor signaling pathway selectivity: AR; conditions: with DHT
T3 sequence (P10275 1-920): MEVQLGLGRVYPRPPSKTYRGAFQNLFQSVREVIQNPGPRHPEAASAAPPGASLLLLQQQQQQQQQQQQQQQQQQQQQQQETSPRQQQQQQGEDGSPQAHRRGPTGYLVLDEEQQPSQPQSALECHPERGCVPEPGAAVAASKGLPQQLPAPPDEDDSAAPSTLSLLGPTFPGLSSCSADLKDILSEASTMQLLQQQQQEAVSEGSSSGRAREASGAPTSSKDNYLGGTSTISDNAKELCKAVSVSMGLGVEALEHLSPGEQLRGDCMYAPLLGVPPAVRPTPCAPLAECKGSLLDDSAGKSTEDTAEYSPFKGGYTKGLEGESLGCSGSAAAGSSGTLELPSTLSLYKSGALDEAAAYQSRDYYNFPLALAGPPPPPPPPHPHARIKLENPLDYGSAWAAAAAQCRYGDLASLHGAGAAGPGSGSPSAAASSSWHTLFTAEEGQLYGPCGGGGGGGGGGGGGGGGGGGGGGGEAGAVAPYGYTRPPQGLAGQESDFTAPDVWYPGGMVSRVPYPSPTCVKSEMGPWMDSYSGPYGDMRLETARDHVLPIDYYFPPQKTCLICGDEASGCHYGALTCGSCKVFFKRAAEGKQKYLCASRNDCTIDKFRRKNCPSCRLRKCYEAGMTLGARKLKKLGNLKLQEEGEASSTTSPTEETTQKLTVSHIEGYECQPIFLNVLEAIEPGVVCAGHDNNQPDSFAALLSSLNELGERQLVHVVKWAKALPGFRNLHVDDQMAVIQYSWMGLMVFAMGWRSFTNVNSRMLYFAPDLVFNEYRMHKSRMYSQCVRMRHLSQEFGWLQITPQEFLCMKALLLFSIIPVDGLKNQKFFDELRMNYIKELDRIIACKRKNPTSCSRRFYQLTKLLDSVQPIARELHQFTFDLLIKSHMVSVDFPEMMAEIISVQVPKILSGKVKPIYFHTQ

[1] = tested on: other hormone receptor signaling pathways; experiment: Selectivity for different hormone receptor signaling pathways (panel)
FXR = target: T4, FXR (Homo sapiens, UniProt Q96RI1); experiment: FXR luciferase reporter assay in HepG2 reporter cells; conditions: for induction of FXR activity / FXR mediated transcriptional response: HepG2 FXR-luciferase reporter cells; for EC50: no ligand added, read-out: FXR (stimulation EC50)
T4 construct: HepG2 cells were stably transfected with either FXR reporter DNA; endogenous in cells; host or cells: HepG2 cells stably transfected with a 3x FXR response element PGL4.2 luciferase reporter
T4 sequence (Q96RI1 1-486): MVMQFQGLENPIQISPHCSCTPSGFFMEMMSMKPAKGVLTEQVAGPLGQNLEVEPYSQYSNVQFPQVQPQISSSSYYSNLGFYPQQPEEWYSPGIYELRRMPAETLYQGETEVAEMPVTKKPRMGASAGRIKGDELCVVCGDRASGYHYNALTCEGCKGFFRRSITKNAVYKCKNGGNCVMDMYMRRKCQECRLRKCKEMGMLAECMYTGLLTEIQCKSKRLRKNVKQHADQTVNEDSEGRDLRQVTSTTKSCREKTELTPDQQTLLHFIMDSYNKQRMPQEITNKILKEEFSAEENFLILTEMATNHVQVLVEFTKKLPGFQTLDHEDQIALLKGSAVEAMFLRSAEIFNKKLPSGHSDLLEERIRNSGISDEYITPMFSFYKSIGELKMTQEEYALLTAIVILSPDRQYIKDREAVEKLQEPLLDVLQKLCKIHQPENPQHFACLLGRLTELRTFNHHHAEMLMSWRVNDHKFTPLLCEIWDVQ
Method: FXR luciferase reporter cells—FXR luciferase reporter cells—HepG2 cancer cells were used in the screening study. HepG2 cells were stably transfected with either FXR reporter DNA in which 3 repeated response element ([…])(SEQ ID NO:2) was inserted in-PGL4.2 luciferase reporter plasmid or LXR reporter DNA in which 3 repeated response element ([…])(SEQ ID NO:3) was inserted in PGL4.2 luciferase reporter plasmid. Reporter cells were selected by puromycin (1 ug/mL) in RPMI-1640 medium with 10% FBS.
Luciferase assay—Reporter cells were treated with compounds at 0, 10, 20, 40, and […] for 24h in a 37° C.-CO2 incubator with or without chenodeoxycholic acid (CDCA) for FXR reporter cells or GW3965 for LXR reporter cells. Cells were lysed using luciferase lysis buffer after which luciferase buffer with luciferin was added to generate luminescence. Luminescence was recorded using a luminescence microplate reader.

ER-β = ER-β (Homo sapiens, UniProt Q92731); experiment: Hormone receptor signaling pathway selectivity: ER-β; conditions: with E2
ER-β, sequence (Q92731 whole entry, species assumed): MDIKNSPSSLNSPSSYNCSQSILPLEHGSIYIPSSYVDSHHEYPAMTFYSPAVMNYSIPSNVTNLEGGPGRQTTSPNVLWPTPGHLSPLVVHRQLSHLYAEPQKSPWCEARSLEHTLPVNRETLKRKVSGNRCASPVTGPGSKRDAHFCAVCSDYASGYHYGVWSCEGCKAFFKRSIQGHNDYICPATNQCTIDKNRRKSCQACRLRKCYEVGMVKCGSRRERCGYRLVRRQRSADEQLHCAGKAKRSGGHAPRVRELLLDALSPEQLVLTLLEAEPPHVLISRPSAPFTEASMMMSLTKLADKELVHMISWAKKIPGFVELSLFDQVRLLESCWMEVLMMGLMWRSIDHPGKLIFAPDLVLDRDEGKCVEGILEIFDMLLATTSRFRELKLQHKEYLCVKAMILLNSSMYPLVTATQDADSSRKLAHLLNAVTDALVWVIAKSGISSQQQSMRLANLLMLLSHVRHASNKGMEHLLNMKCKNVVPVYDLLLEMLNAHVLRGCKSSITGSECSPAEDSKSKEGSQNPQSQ

CYP7A1 = experiment: RT-qPCR for FXR target genes in HepG2 cells: CYP7A1; conditions: concentration of about 35 μM to 45
Method: as §1

[2] = read-out: VDRE with ligand VD3 (inhibition IC50)
[3] = read-out: ER-α with ligand E2 (inhibition IC50)
[4] = read-out: AR with ligand DHT (inhibition IC50)
[5] = read-out: ER-β with ligand E2 (inhibition IC50)
[6] = read-out: IC50, inhibition of VD3 action on VDR
[7] = read-out: IC50, inhibition of DHT action on AR

| EC50 (VDR) [µM] | Compound | BACS mRNA expression, fold lower than the CDCA induced BACS expression (BACS) | IC50 (VDR; [2]) [µM] | IC50 (ER-α; [3]) [µM] | PPARa mRNA expression, fold higher than that induced by compound (II) (PPARa) | IC50 (AR; [4]) [µM] | impact on other hormone receptor signaling pathways [1] | induction of FXR activity / FXR mediated transcriptional response (FXR) | EC50 (FXR) [µM] | IC50 (ER-β; [5]) [µM] | inhibition of CYP7A1, stronger than by compound (II) or by CDCA (CYP7A1) | IC50 (ER-α; read-out: IC50, inhibition of E2 triggered ERα mediated transcriptional response) [µM] | IC50 (VDR; [6]) [µM] | IC50 (AR; [7]) [µM] | IC50 (ER-β; read-out: IC50, inhibition of E2 action on ERβ) [µM] |
| --- | --- | --- | --- | --- | --- | --- | --- | --- | --- | --- | --- | --- | --- | --- | --- |
| – | C=C(CC[C@@H](C)[C@H]1CC[C@H]2C3=C(C(=O)[C@H](O)[C@]12C)[C@@]1(C)CC[C@@H](O)[C@@H](C)[C@@H]1CC3=O)[C@@H](C)C(=O)O [compound (I)] | about 2 fold | > 80 | > 80 | about 2 fold | > 80 | no impact | act as agonists; also recorded: induce/enhance FXR activity | 25 | > 80 | about 40% | – | – | – | – |
| – | C=C(CC[C@@H](C)[C@H]1CC[C@H]2C3=C(C(=O)[C@H](O)[C@]12C)[C@@]1(C)CC[C@@H](O)[C@@H](C)[C@@H]1CC3=O)[C@H](C)C(=O)O [compound (II)] | about 2 fold | > 80 | > 80 | – | > 80 | no impact | act as agonists; also recorded: induce/enhance FXR activity | 40 | > 80 | – | – | – | – | – |
| – | C=C(CC[C@@H](C)[C@H]1CC[C@H]2C3=C(C(=O)C[C@]12C)[C@@]1(C)CCC(=O)[C@@H](C)[C@@H]1C[C@@H]3O)[C@H](C)C(=O)O [compound (III)] | – | > 80 | > 80 | – | > 80 | – | – | > 80 | > 80 | – | – | – | – | – |
| – | C=C(CC[C@@H](C)[C@H]1CC[C@H]2C3=C(C(=O)C[C@]12C)[C@@]1(C)CCC(=O)[C@@H](C)[C@@H]1C[C@@H]3O)[C@@H](C)C(=O)O [compound (IV)] | – | > 80 | 70 | – | > 80 | – | – | > 80 | > 80 | – | ~80 | – | – | – |
| – | C=C(CCC(C(=O)O)[C@H]1C[C@H](OC(C)=O)[C@@]2(C)C3=CC[C@H]4C(C)(C)[C@@H](O)CC[C@]4(C)C3=CC[C@]12C)C(C)C (some centres unmarked) [compound (IX)] | – | > 80 | > 80 | – | > 80 | – | – | > 80 | > 80 | – | – | – | – | – |
| – | CC(C)=CCCC(C(=O)O)C1CC(O)C2(C)C3=CCC4C(C)(CCC(O)C4(C)C)C3=CCC12C (centres unmarked) [compound (V)] | – | > 80 | > 80 | – | > 80 | – | – | > 80 | > 80 | – | – | – | – | – |
| – | C=C(CC[C@@H](C(=O)O)[C@H]1C[C@H](O)[C@@]2(C)C3=CC[C@H]4C(C)(C)C(O)CC[C@]4(C)C3=CC[C@]12C)C(C)C (some centres unmarked) [compound (VI)] | – | > 80 | > 80 | – | > 80 | – | – | > 80 | > 80 | – | – | – | – | – |
| – | C=C(CC[C@@H](C)[C@H]1CC[C@H]2C3=C(C(=O)C[C@]12C)[C@@]1(C)CCC(=O)[C@@H](C)[C@@H]1CC3=O)[C@H](C)C(=O)O [compound (VII)] | – | – | > 80 | – | – | – | – | > 80 | – | – | – | 20 | 40 | 40 |
| – | C=C(CC[C@@H](C)[C@H]1CC[C@H]2C3=C(C(=O)C[C@]12C)[C@@]1(C)CCC(=O)[C@@H](C)[C@@H]1CC3=O)[C@@H](C)C(=O)O [compound (VIII)] | – | – | > 80 | – | – | – | – | > 80 | > 80 | – | – | 25 | 25 | – |
| 1.5 | C=C(CCC(C(=O)O)C1CCC2(C)C3=CCC4C(C)(CCC(O)C4(C)C)C3=CCC12C)C(C)C (centres unmarked) [compound (X)] | – | > 80 | > 80 | – | > 80 | – | – | > 80 | > 80 | – | – | – | – | – |
| – | C=C(CC[C@@H](C)[C@H]1CC[C@H]2C3=C(CC[C@]12C)[C@@]1(C)CC[C@@H](O)C(C)(C)[C@@H]1C[C@@H]3O)[C@@H](C)C(=O)O [compound (XI)] | – | > 80 | > 80 | – | > 80 | – | – | > 80 | > 80 | – | – | – | – | – |
| 1.5 | C=C(CCC(C(=O)O)C1CCC2(C)C3=C(CCC12C)C1(C)CCC(O)C(C)(C)C1CC3)C(C)C (centres unmarked) [compound (XII)] | – | > 80 | > 80 | – | > 80 | – | – | > 80 | > 80 | – | – | – | – | – |
